Data published in patent US6596772B1, “Phosphate mimics and methods of treatment using phosphatase inhibitors” (Sugen, Inc., priority 1999, dated 2003).
Where two headings read alike, the source gives them in different places.

Tests used:
Test in all cases: PTP IC50 assay, pNPP or FDP as substrate
Type in all cases: biochemical
PTP 1B = target: T1, PTP 1B (Homo sapiens, UniProt P18031); conditions: pNPP or FDP as substrate, 25° C.
T1 construct: made in house; host or cells: Sf-9 insect cells (pFastBac-G2T)
T1 sequence (P18031 1-435): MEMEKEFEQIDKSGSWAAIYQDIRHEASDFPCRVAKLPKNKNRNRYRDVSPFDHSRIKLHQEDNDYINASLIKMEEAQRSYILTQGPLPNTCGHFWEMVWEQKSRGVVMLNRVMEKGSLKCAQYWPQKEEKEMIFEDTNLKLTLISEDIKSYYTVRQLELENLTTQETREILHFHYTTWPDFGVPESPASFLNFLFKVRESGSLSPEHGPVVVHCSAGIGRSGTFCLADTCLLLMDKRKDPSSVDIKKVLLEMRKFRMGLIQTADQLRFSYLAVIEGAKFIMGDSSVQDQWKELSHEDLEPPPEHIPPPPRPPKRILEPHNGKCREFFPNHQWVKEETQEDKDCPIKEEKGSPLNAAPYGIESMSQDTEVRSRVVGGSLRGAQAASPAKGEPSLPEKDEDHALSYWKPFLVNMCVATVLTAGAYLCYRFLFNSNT
Protocol: (§1) The following in vitro assay procedure is preferred to determine the level of activity and effect of the different compounds of the present invention on one or more of the PTPs. Similar assays can be designed along the same lines for any PTP using techniques well known in the art.
(§2) The catalytic assays described herein are performed in a 96-well format. The general procedure begins with the determination of PTP optimal pH using a three-component buffer system that minimizes ionic strength variations across a wide range of buffer pH. Next, the Michaelis-Menten constant, or Km, is determined for each specific substrate-PTP system. This Km value is subsequently used as the substrate reaction concentration for compound screening. Finally, the test PTP is exposed to varying concentrations of compound for fifteen minutes and allowed to react with substrate for ten minutes. The results are plotted as percent inhibition versus compound concentration and the IC50 interpolated from the plot.
(§3) All assays were performed using pNPP or FDP as substrate. The optimum pH was determined for each PTP used.
(§4) PTPase activity was assayed at 25° C. in a 100-μl reaction mixture containing an appropriate concentration of pNPP or FDP as substrate. The reaction was initiated by addition of the PTP and quenched after 10 min by addition of 50 μl of IN NaOH. The non-enzymatic hydrolysis of the substrate was corrected by measuring the control without the addition of the enzyme. The amount of p-nitrophenol produced was determined from the absorbance at 410 nm. To determine the kinetic parameter, Km, the initial velocities were measured at various substrate concentrations and the data were fitted to the Michaelis equation where velocity=(Vmax*[S])/(Km+[S]), and [S]=substrate reaction concentration.
(§5) The effect of the compounds on PTP was evaluated at 25° C. using pNPP or FDP as substrate. PTP was pre-incubated for fifteen minutes with various concentrations of compound. Substrate was then added at a fixed concentration (usually equal to the Km previously calculated). After 10 minutes, NaOH was added to stop the reaction. The hydrolysis of pNPP was followed at 410 nm on the Biotek Powerwave 200 microplate scanning spectrophotometer. The percent inhibition was calculated as follows: Percent Inhibition=[(control signal−compound signal)/control signal] ×100%. The IC50 was then determined by interpolation of a percent inhibition versus compound concentration plot.
(§6) Plasmids designed for bacterial GST-PTP fusion protein expression were derived by insertion of PCR-generated human PTP fragments into pGEX vectors (Pharmacia Biotech). Several of these constructs were then used to subclone phosphatases into pFastBac-1for expression in Sf-9 insect cells. Oligonucleotides used for the initial amplification of PTP genes are shown below. The cDNAs were prepared using the Gilbo BRL superscript preamplification system on RNAs purchased from Clontech.
The PTP1b cDNA was amplified from human placenta single strand cDNA (Clontech RNA) using the following oligonucleotides: 5′oligo: 5′-[…] (SEQ ID NO: 4) 3′oligo: 5′-[…] (SEQ ID NO: 5) It was subsequently ligated into pFasBac G2TBamH1Xba-1 sites.

PTP EPSILON = target: T2, PTP EPSILON (Homo sapiens, UniProt P23469); conditions: pNPP or FDP as substrate, 25° C.
T2 construct: made in house; host or cells: Sf-9 insect cells (pFastBac-G2T); a pGEX 6P-1 construct also existed
T2 sequence (P23469 80-393 limits assumed): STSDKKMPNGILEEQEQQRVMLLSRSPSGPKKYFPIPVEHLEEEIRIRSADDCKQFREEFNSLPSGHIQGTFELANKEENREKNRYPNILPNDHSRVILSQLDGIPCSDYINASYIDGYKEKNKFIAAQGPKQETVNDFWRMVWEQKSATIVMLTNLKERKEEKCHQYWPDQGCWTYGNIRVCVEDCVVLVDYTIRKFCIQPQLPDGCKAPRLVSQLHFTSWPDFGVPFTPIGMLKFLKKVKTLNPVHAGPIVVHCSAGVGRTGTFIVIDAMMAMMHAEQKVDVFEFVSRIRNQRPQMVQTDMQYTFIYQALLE
Protocol: as §1, §2, §3, §4, §5, §6
The PTPepsilon cDNA was amplified from human placenta single-strand cDNA (Clontech RNA) using the following oligonucleotides: 5′oligo: 5′-[…]-3′ (SEQ ID NO: 6) 3′oligo: 5′-[…]-3′ (SEQ ID NO: 7) After cloning this PCR product into the Bam HI/Xho I sites of pGEX 6P-1, this phosphatase was subcloned using the same restriction sites in pFastBac-G2T.

PTP SHP2 = target: T3, PTP SHP2 (Homo sapiens, UniProt Q06124); conditions: 25° C.
T3 construct: The catalytic domain was amplified using the following oligonucleotides; made in house; host or cells: Sf-9 insect cells (pFastBac-G2T)
T3 sequence (Q06124 247-517 limits assumed): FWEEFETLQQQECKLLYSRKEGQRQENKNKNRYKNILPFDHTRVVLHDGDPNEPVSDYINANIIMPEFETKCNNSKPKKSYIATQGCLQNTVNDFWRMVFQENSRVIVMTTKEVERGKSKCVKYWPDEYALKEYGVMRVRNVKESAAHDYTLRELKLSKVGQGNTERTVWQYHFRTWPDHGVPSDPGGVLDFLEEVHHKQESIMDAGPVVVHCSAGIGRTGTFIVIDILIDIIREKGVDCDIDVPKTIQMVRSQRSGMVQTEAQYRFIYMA
Protocol: as §1, §2, §3, §4, §5, §6
SHP-2 cDNA was used as described earlier (Vogel W., et al.,1993, Science, 259:1611-4). The catalytic domain was amplified using the following oligonucleotides 5′oligo: 5′-[…]-3′ (SEQ ID NO: 2) 3′oligo: 5′-[…]-3′ (SEQ ID NO: 3) and subsequently subcloned into BamH1-Xba-1 sites. It was then ligated into pfas Bac-G2T BamH1-Xba-1 sites.

PTP MU = target: T4, PTP MU (Homo sapiens, UniProt P28827)
T4 construct: made in house; host or cells: E. coli BL-21 (pGEX 6P-1)
T4 sequence (P28827 831-1186 limits assumed): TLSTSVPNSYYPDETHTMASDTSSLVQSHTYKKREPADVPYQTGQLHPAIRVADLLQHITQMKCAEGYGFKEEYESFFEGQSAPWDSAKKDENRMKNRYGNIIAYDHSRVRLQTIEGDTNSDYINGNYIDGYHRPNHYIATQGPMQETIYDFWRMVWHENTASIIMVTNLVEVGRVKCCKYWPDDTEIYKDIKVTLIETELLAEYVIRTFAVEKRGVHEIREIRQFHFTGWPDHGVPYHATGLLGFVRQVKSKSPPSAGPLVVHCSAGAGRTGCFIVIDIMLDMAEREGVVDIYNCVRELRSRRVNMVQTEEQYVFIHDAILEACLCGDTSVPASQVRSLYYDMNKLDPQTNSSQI
Protocol: as §1, §2, §3, §4, §5, §6
The PTP Mu cDNA was amplified from a human lung cDNA library (Clontech) using the following oligonucleotides; 5′oligo: 5′-[…]-3′ (SEQ ID NO: 18) 3′oligo: 5′-[…]-3′ (SEQ ID NO: 19) It was subsequently ligated into the Eco RI/Xho I sites of pGEX 6P-1.

[1] = pNPP or FDP as substrate, read-out: PTP IC50 SHP2
[2] = pNPP or FDP as substrate, 25° C., read-out: PTP IC50 Mu

CCOC(=O)COc1ccc(S(=O)(=O)c2ccc(Oc3ccc(S(=O)(=O)C(F)(F)F)cc3[N+](=O)[O-])cc2)cc1 [Example 17, {4-[4-(2-Nitro-4-trifluoromethanesulfonyl-phenoxy)-benzenesulfonyl]-phenoxy}-acetic acid ethyl ester]
IC50 (PTP 1B; read-out: PTP IC50 1B): > 100 µM
IC50 (PTP EPSILON; read-out: PTP IC50 Epilson): > 100 µM
IC50 (PTP SHP2; [1]): > 100 µM
IC50 (PTP MU; [2]): > 100 µM

O=C(O)c1ccc(Oc2cccc(Oc3ccc(S(=O)(=O)C(F)(F)F)cc3)c2)cc1 [Example 18, 4-[3-(4-Trifluoromethanesulfonyl-phenoxy)-phenoxy]-benzoic acid]
IC50 (PTP 1B; read-out: PTP IC50 1B): 16.4 µM
IC50 (PTP EPSILON; read-out: PTP IC50 Epilson): 0.77 µM
IC50 (PTP SHP2; [1]): 18.4 µM
IC50 (PTP MU; [2]): 21.6 µM

CCOC(=O)COc1ccc(S(=O)(=O)c2ccc(Oc3ccc(S(=O)(=O)C(F)(F)F)cc3)cc2)cc1 [Example 19, {4-[4-(4-trifluoromethanesulfonyl-phenoxy)-benzenesulfonyl]-phenoxy}-acetic acid ethyl ester]
IC50 (PTP 1B; read-out: PTP IC50 1B): 42.5 µM
IC50 (PTP EPSILON; read-out: PTP IC50 Epilson): 31.4 µM
IC50 (PTP SHP2; [1]): > 100 µM
IC50 (PTP MU; [2]): 69.5 µM

O=C(Cc1ccccc1CC(=O)Nc1cccc(S(=O)(=O)C(F)(F)F)c1)Nc1cccc(S(=O)(=O)C(F)(F)F)c1 [Example 20, N-(3-Trifluoromethanesulfonyl-phenyl)-2-{2-[(3-trifluoromethanesulfonyl-phenylcarbamoyl)-methyl]-phenyl}-acetamide]
IC50 (PTP 1B; read-out: PTP IC50 1B): 43.3 µM
IC50 (PTP EPSILON; read-out: PTP IC50 Epilson): 7.5 µM
IC50 (PTP SHP2; [1]): 54.3 µM
IC50 (PTP MU; [2]): 37.9 µM

O=C(Cc1cccc(CC(=O)Nc2cccc(S(=O)(=O)C(F)(F)F)c2)c1)Nc1cccc(S(=O)(=O)C(F)(F)F)c1 [Example 21, N-(3-Trifluoromethanesulfonyl-phenyl)-2-{3-[(3-trifluoromethanesulfonyl-phenylcarbamoyl)-methyl]-phenyl}-acetamide]
IC50 (PTP 1B; read-out: PTP IC50 1B): 35.3 µM
IC50 (PTP EPSILON; read-out: PTP IC50 Epilson): 57.8 µM
IC50 (PTP SHP2; [1]): 56.8 µM
IC50 (PTP MU; [2]): 47.7 µM

O=C(Cc1ccc(CC(=O)Nc2cccc(S(=O)(=O)C(F)(F)F)c2)cc1)Nc1cccc(S(=O)(=O)C(F)(F)F)c1 [Example 22, N-(3-Trifluoromethanesulfonyl-phenyl)-2-{4-[(3-trifluoromethanesulfonyl-phenylcarbamoyl)-methyl]-phenyl}-acetamide]
IC50 (PTP 1B; read-out: PTP IC50 1B): 25.7 µM
IC50 (PTP EPSILON; read-out: PTP IC50 Epilson): 8.3 µM
IC50 (PTP SHP2; [1]): 16.3 µM
IC50 (PTP MU; [2]): 17.4 µM

O=[N+]([O-])c1cc(S(=O)(=O)C(F)(F)F)ccc1Oc1cc(CN2CCOCC2)c(Oc2ccc(S(=O)(=O)C(F)(F)F)cc2[N+](=O)[O-])cc1CN1CCOCC1 [Example 23, 3,6-Bis-(morpholin-4-ylmethyl)-2,5-bis-(2-nitro-4-trifluoromethanesulfonyl-phenoxy)-benzene]
IC50 (PTP 1B; read-out: PTP IC50 1B): 11.6 µM
IC50 (PTP EPSILON; read-out: PTP IC50 Epilson): 2.2 µM
IC50 (PTP SHP2; [1]): 27.6 µM
IC50 (PTP MU; [2]): 18.3 µM

CN(C)CC(COc1ccc(S(=O)(=O)C(F)(F)F)cc1[N+](=O)[O-])Oc1ccc(S(=O)(=O)C(F)(F)F)cc1[N+](=O)[O-] (stereo not drawn) [Example 24, [2,3-Bis-(2-nitro-4-trifluoromethanesulfonyl-phenoxy)-propyl]-dimethyl-amine]
IC50 (PTP 1B; read-out: PTP IC50 1B): > 100 µM
IC50 (PTP EPSILON; read-out: PTP IC50 Epilson): > 100 µM
IC50 (PTP SHP2; [1]): > 100 µM
IC50 (PTP MU; [2]): > 100 µM

CCNc1ccc(S(=O)(=O)C(F)(F)F)cc1NC(=O)Cc1ccc(S(C)(=O)=O)cc1 [Example 25, N-(2-Ethylamino-5-trifluoromethanesulfonyl-phenyl)-2-(4-methanesulfonyl-phenyl)-acetamide]
IC50 (PTP 1B; read-out: PTP IC50 1B): 16.4 µM
IC50 (PTP EPSILON; read-out: PTP IC50 Epilson): 41.4 µM
IC50 (PTP SHP2; [1]): > 100 µM
IC50 (PTP MU; [2]): 48.8 µM

CCOC(=O)c1cc(Oc2ccc(S(=O)(=O)C(F)(F)F)cc2[N+](=O)[O-])c(C(=O)OCC)cc1O [Example 26, 2-Hydroxy-5-(2-nitro-4-trifluoromethanesulfonyl-phenoxy)-terephthalic acid diethyl ester]
IC50 (PTP 1B; read-out: PTP IC50 1B): > 100 µM
IC50 (PTP EPSILON; read-out: PTP IC50 Epilson): 6.2 µM
IC50 (PTP SHP2; [1]): > 100 µM
IC50 (PTP MU; [2]): 65 µM

O=C(O)Cc1ccccc1CC(=O)Nc1cccc(S(=O)(=O)C(F)(F)F)c1 [Example 27, {2-[(3-Trifluoromethanesulfonyl-phenylcarbamoyl)-methyl]-phenyl}-acetic acid]
IC50 (PTP 1B; read-out: PTP IC50 1B): > 100 µM
IC50 (PTP EPSILON; read-out: PTP IC50 Epilson): 3.8 µM
IC50 (PTP SHP2; [1]): > 100 µM
IC50 (PTP MU; [2]): > 100 µM

O=C(O)Cc1cccc(CC(=O)Nc2cccc(S(=O)(=O)C(F)(F)F)c2)c1 [Example 28, {3-[(3-Trifluoromethanesulfonyl-phenylcarbamoyl)-methyl]-phenyl}-acetic acid]
IC50 (PTP 1B; read-out: PTP IC50 1B): 27.6 µM
IC50 (PTP EPSILON; read-out: PTP IC50 Epilson): 3.1 µM
IC50 (PTP SHP2; [1]): 17.9 µM
IC50 (PTP MU; [2]): > 100 µM

O=C(O)Cc1ccc(CC(=O)Nc2cccc(S(=O)(=O)C(F)(F)F)c2)cc1 [Example 29, {4-[(3-Trifluoromethanesulfonyl-phenylcarbamoyl)-methyl]-phenyl}-acetic acid]
IC50 (PTP 1B; read-out: PTP IC50 1B): 35.4 µM
IC50 (PTP EPSILON; read-out: PTP IC50 Epilson): 26.1 µM
IC50 (PTP SHP2; [1]): 37 µM
IC50 (PTP MU; [2]): > 100 µM

NC(=O)c1cc(Oc2ccc(S(=O)(=O)C(F)(F)F)cc2[N+](=O)[O-])cc(Oc2ccc(S(=O)(=O)C(F)(F)F)cc2[N+](=O)[O-])c1 [Example 30, 3,5-Bis-(2-nitro-4-trifluoromethanesulfonyl-phenoxy)-benzamide]
IC50 (PTP 1B; PTP IC50 1B): > 100 µM
IC50 (PTP EPSILON; PTP IC50 Epilson): 4.3 µM
IC50 (PTP SHP2; PTP IC50 SHP2, pNPP or FDP as substrate): 52.8 µM
IC50 (PTP MU): 28.4 µM

O=C(O)c1cc(Oc2ccc(S(=O)(=O)C(F)(F)F)cc2)cc(Oc2ccc(S(=O)(=O)C(F)(F)F)cc2)c1 [Example 31, 3,5-Bis-(4-trifluoromethanesulfonyl-phenoxy)-benzoic acid]
IC50 (PTP 1B; read-out: PTP IC50 1B): 6.2 µM
IC50 (PTP EPSILON; read-out: PTP IC50 Epilson): 1.8 µM
IC50 (PTP SHP2; [1]): 5.7 µM
IC50 (PTP MU; [2]): 8.7 µM
